Measurements from patent US12485125B2, “Treatment with P2X3 modulators” (GlaxoSmithKline Intellectual Property (No. 3) Limited, priority 2019, dated 2025).

Tested on: syngeneic C57BL/6 mice
Assay: Syngeneic mouse model of endometriosis: mechanical allodynia by von Frey pain stimulation procedure
Format: in vivo
Details: 30 mg/kg i.p., day 4 and 5, measured one hour following treatment; p<0.05; FIG. 1A
Protocol: A P2X3 receptor antagonist compound of Formula (I) described herein was evaluated in the syngeneic mouse model of endometriosis.
C57BL/6 mice (8 weeks old) were anesthetized before making a vertical incision on the abdomen. The uterus was collected and divided into pieces of 5 millimeters which were then surgically sutured onto the peritoneum of syngeneic recipient animals. The recipient mice were also treated with oestradiol and the resulting lesions were allowed to develop for 11 weeks.
Baseline measurements were established on Day 0 by measuring mechanical allodynia in all transplanted mice using a von Frey pain stimulation procedure in accordance with the protocol described below. On Day 1 transplanted mice were injected with saline (i.p.) and mechanical allodynia was again measured using the von Frey filament method (control). […] Mechanical allodynia was evaluated using the von Frey pain stimulation procedure. […] The mice were euthanized on Day 6 and evaluated for the presence of endometriotic lesions.
Animals were placed in small cages with a mesh or otherwise penetrable bottom. The pain threshold was evaluated with von Frey filaments using the simplified up-down method, which determines the mechanical force required to elicit a positive pain response in animals. […]

Compound: CNC(=O)c1cc(F)c(-c2nc3cc(C)ccn3c2C[C@H]2CN(C(=O)OC)CCO2)c(F)c1 [Compound 1]
- stimulus threshold (von Frey test; pressure stimulus required to elicit behavioral response, change from baseline Day 0): greater stimulus threshold
